Columns and labels:
[1] = n-octanol-PBS partition coefficient, logP of the compound; type: physicochemical
Plasma = experiment: Metabolic stability in mouse plasma after 2 hrs by radio-HPLC analysis; type: ADME, cell-free
[2] = Chemical stability in PBS after 2 hrs by radio-HPLC analysis at room temperature; type: physicochemical; settings: buffer
[3] = Chemical stability in PBS after 2 hrs by radio-HPLC analysis at 60 degC; type: physicochemical; settings: buffer
Heart [4] = experiment: Biodistribution in S180 tumor-bearing mouse heart at 8 to 10 uCi, iv after 5 mins by gamma counting; type: ADME, organism-based; settings: in vivo
Liver [5] = experiment: Biodistribution in S180 tumor-bearing mouse liver at 8 to 10 uCi, iv after 5 mins by gamma counting; type: ADME, organism-based; settings: in vivo
Spleen [6] = experiment: Biodistribution in S180 tumor-bearing mouse spleen at 8 to 10 uCi, iv after 5 mins by gamma counting; type: ADME, organism-based; settings: in vivo
Lung [7] = experiment: Biodistribution in S180 tumor-bearing mouse lungs at 8 to 10 uCi, iv after 5 mins by gamma counting; type: ADME, organism-based; settings: in vivo
Kidney [8] = experiment: Biodistribution in S180 tumor-bearing mouse kidneys at 8 to 10 uCi, iv after 5 mins by gamma counting; type: ADME, organism-based; settings: in vivo
Stomach [9] = experiment: Biodistribution in S180 tumor-bearing mouse stomach at 8 to 10 uCi, iv after 5 mins by gamma counting; type: ADME, organism-based; settings: in vivo
Muscle tissue [10] = experiment: Biodistribution in S180 tumor-bearing mouse muscle at 8 to 10 uCi, iv after 5 mins by gamma counting; type: ADME, organism-based; settings: in vivo
Brain [11] = experiment: Biodistribution in S180 tumor-bearing mouse brain at 8 to 10 uCi, iv after 5 mins by gamma counting; type: ADME, organism-based; settings: in vivo
Mus musculus [12] = experiment: Biodistribution in S180 cells xenografted in mouse tumor at 8 to 10 uCi, iv after 5 mins by gamma counting; type: ADME, organism-based, Neoplasm, CCRF S-180; settings: in vivo
Blood [13] = experiment: Biodistribution in S180 tumor-bearing mouse blood at 8 to 10 uCi, iv after 5 mins by gamma counting; type: ADME, organism-based; settings: in vivo
Nucleic Acid [14] = experiment: Ratio of drug level in tumor to muscle in S180 tumor-bearing mouse at 8 to 10 uCi, iv at 5 mins by gamma counting; type: ADME, organism-based; settings: in vivo
Nucleic Acid [15] = experiment: Ratio of drug level in tumor to blood in S180 tumor-bearing mouse at 8 to 10 uCi, iv at 5 mins by gamma counting; type: ADME, organism-based; settings: tumour
Nucleic Acid [16] = experiment: Ratio of drug level in tumor to brain in S180 tumor-bearing mouse at 8 to 10 uCi, iv at 5 mins by gamma counting; type: ADME, organism-based; settings: in vivo
Heart [17] = experiment: Biodistribution in S180 tumor-bearing mouse heart at 8 to 10 uCi, iv after 30 mins by gamma counting; type: ADME, organism-based; settings: in vivo, 0.5 h
Liver [18] = experiment: Biodistribution in S180 tumor-bearing mouse liver at 8 to 10 uCi, iv after 30 mins by gamma counting; type: ADME, organism-based; settings: in vivo, 0.5 h
Spleen [19] = experiment: Biodistribution in S180 tumor-bearing mouse spleen at 8 to 10 uCi, iv after 30 mins by gamma counting; type: ADME, organism-based; settings: in vivo, 0.5 h
Lung [20] = experiment: Biodistribution in S180 tumor-bearing mouse lung at 8 to 10 uCi, iv after 30 mins by gamma counting; type: ADME, organism-based; settings: in vivo, 0.5 h
Kidney [21] = experiment: Biodistribution in S180 tumor-bearing mouse kidney at 8 to 10 uCi, iv after 30 mins by gamma counting; type: ADME, organism-based; settings: in vivo, 0.5 h
Stomach [22] = experiment: Biodistribution in S180 tumor-bearing mouse stomach at 8 to 10 uCi, iv after 30 mins by gamma counting; type: ADME, organism-based; settings: in vivo, 0.5 h
Muscle tissue [23] = experiment: Biodistribution in S180 tumor-bearing mouse muscle at 8 to 10 uCi, iv after 30 mins by gamma counting; type: ADME, organism-based; settings: in vivo, 0.5 h
Brain [24] = experiment: Biodistribution in S180 tumor-bearing mouse brain at 8 to 10 uCi, iv after 30 mins by gamma counting; type: ADME, organism-based; settings: in vivo, 0.5 h
Mus musculus [25] = experiment: Biodistribution in S180 cells xenografted in mouse tumor at 8 to 10 uCi, iv after 30 mins by gamma counting; type: ADME, organism-based, Neoplasm, CCRF S-180; settings: in vivo, 0.5 h
Blood [26] = experiment: Biodistribution in S180 tumor-bearing mouse blood at 8 to 10 uCi, iv after 30 mins by gamma counting; type: ADME, organism-based; settings: in vivo, 0.5 h
Nucleic Acid [27] = experiment: Ratio of drug level in tumor to muscle in S180 tumor-bearing mouse at 8 to 10 uCi, iv at 30 mins by gamma counting; type: ADME, organism-based; settings: in vivo, 0.5 h
Nucleic Acid [28] = experiment: Ratio of drug level in tumor to blood in S180 tumor-bearing mouse at 8 to 10 uCi, iv at 30 mins by gamma counting; type: ADME, organism-based; settings: tumour, 0.5 h
Nucleic Acid [29] = experiment: Ratio of drug level in tumor to brain in S180 tumor-bearing mouse at 8 to 10 uCi, iv at 30 mins by gamma counting; type: ADME, organism-based; settings: in vivo, 0.5 h
Heart [30] = experiment: Biodistribution in S180 tumor-bearing mouse heart at 8 to 10 uCi, iv after 60 mins by gamma counting; type: ADME, organism-based; settings: in vivo, 1 h
Liver [31] = experiment: Biodistribution in S180 tumor-bearing mouse liver at 8 to 10 uCi, iv after 60 mins by gamma counting; type: ADME, organism-based; settings: in vivo, 1 h
Spleen [32] = experiment: Biodistribution in S180 tumor-bearing mouse spleen at 8 to 10 uCi, iv after 60 mins by gamma counting; type: ADME, organism-based; settings: in vivo, 1 h
Lung [33] = experiment: Biodistribution in S180 tumor-bearing mouse lung at 8 to 10 uCi, iv after 60 mins by gamma counting; type: ADME, organism-based; settings: in vivo, 1 h
Kidney [34] = experiment: Biodistribution in S180 tumor-bearing mouse kidney at 8 to 10 uCi, iv after 60 mins by gamma counting; type: ADME, organism-based; settings: in vivo, 1 h
Stomach [35] = experiment: Biodistribution in S180 tumor-bearing mouse stomach at 8 to 10 uCi, iv after 60 mins by gamma counting; type: ADME, organism-based; settings: in vivo, 1 h
Muscle tissue [36] = experiment: Biodistribution in S180 tumor-bearing mouse muscle at 8 to 10 uCi, iv after 60 mins by gamma counting; type: ADME, organism-based; settings: in vivo, 1 h
Brain [37] = experiment: Biodistribution in S180 tumor-bearing mouse brain at 8 to 10 uCi, iv after 60 mins by gamma counting; type: ADME, organism-based; settings: in vivo, 1 h
Mus musculus [38] = experiment: Biodistribution in S180 cells xenografted in mouse tumor at 8 to 10 uCi, iv after 60 mins by gamma counting; type: ADME, organism-based, Neoplasm, CCRF S-180; settings: in vivo, 1 h
Blood [39] = experiment: Biodistribution in S180 tumor-bearing mouse blood at 8 to 10 uCi, iv after 60 mins by gamma counting; type: ADME, organism-based; settings: in vivo, 1 h
Nucleic Acid [40] = experiment: Ratio of drug level in tumor to muscle in S180 tumor-bearing mouse at 8 to 10 uCi, iv at 60 mins by gamma counting; type: ADME, organism-based; settings: in vivo, 1 h
Nucleic Acid [41] = experiment: Ratio of drug level in tumor to blood in S180 tumor-bearing mouse at 8 to 10 uCi, iv at 60 mins by gamma counting; type: ADME, organism-based; settings: tumour, 1 h
Nucleic Acid [42] = experiment: Ratio of drug level in tumor to brain in S180 tumor-bearing mouse at 8 to 10 uCi, iv at 60 mins by gamma counting; type: ADME, organism-based; settings: in vivo, 1 h
Heart [43] = experiment: Biodistribution in S180 tumor-bearing mouse heart at 8 to 10 uCi, iv after 120 mins by gamma counting; type: ADME, organism-based; settings: in vivo, 2 h
Liver [44] = experiment: Biodistribution in S180 tumor-bearing mouse liver at 8 to 10 uCi, iv after 120 mins by gamma counting; type: ADME, organism-based; settings: in vivo, 2 h
Spleen [45] = experiment: Biodistribution in S180 tumor-bearing mouse spleen at 8 to 10 uCi, iv after 120 mins by gamma counting; type: ADME, organism-based; settings: in vivo, 2 h
Lung [46] = experiment: Biodistribution in S180 tumor-bearing mouse lung at 8 to 10 uCi, iv after 120 mins by gamma counting; type: ADME, organism-based; settings: in vivo, 2 h
Kidney [47] = experiment: Biodistribution in S180 tumor-bearing mouse kidney at 8 to 10 uCi, iv after 120 mins by gamma counting; type: ADME, organism-based; settings: in vivo, 2 h
Stomach [48] = experiment: Biodistribution in S180 tumor-bearing mouse stomach at 8 to 10 uCi, iv after 120 mins by gamma counting; type: ADME, organism-based; settings: in vivo, 2 h
Muscle tissue [49] = experiment: Biodistribution in S180 tumor-bearing mouse muscle at 8 to 10 uCi, iv after 120 mins by gamma counting; type: ADME, organism-based; settings: in vivo, 2 h
Brain [50] = experiment: Biodistribution in S180 tumor-bearing mouse brain at 8 to 10 uCi, iv after 120 mins by gamma counting; type: ADME, organism-based; settings: in vivo, 2 h
Mus musculus [51] = experiment: Biodistribution in S180 cells xenografted in mouse tumor at 8 to 10 uCi, iv after 120 mins by gamma counting; type: ADME, organism-based, Neoplasm, CCRF S-180; settings: in vivo, 2 h
Blood [52] = experiment: Biodistribution in S180 tumor-bearing mouse blood at 8 to 10 uCi, iv after 120 mins by gamma counting; type: ADME, organism-based; settings: in vivo, 2 h
Nucleic Acid [53] = experiment: Ratio of drug level in tumor to muscle in S180 tumor-bearing mouse at 8 to 10 uCi, iv at 120 mins by gamma counting; type: ADME, organism-based; settings: in vivo, 2 h
Nucleic Acid [54] = experiment: Ratio of drug level in tumor to blood in S180 tumor-bearing mouse at 8 to 10 uCi, iv at 120 mins by gamma counting; type: ADME, organism-based; settings: tumour, 2 h
Nucleic Acid [55] = experiment: Ratio of drug level in tumor to brain in S180 tumor-bearing mouse at 8 to 10 uCi, iv at 120 mins by gamma counting; type: ADME, organism-based; settings: in vivo, 2 h
Blood [56] = experiment: Clearance in S180 tumor-bearing mouse blood at 8 to 10 uCi, iv at 120 mins; type: ADME, organism-based; settings: in vivo, 2 h

In the case of `COc1cc2ncnc(Nc3cccc(Br)c3)c2cc1OCC[18F]`, the logP [1] is reported as 0.89, the Stability (Plasma) is reported as “Stable” and the Stability [2] is reported as “Stable”. The Stability [3] was “Stable”, the Drug uptake (Heart [4]) was 4.79 % ID/g and the Drug uptake (Liver [5]) was 9.67 % ID/g. The Drug uptake (Spleen [6]) was 2.84 % ID/g, the Drug uptake (Lung [7]) was 12.21 % ID/g and the Drug uptake (Kidney [8]) was 10.85 % ID/g. For the same molecule, the Drug uptake (Stomach [9]) was 8.52 % ID/g, the Drug uptake (Muscle tissue [10]) was 1.87 % ID/g and the Drug uptake (Brain [11]) was 0.78 % ID/g. For the same molecule, the Drug uptake (Mus musculus [12]) was 0.38 % ID/g, the Drug uptake (Blood [13]) was 4.43 % ID/g and the Ratio (Nucleic Acid [14]) was 0.2. For the same molecule, the Ratio (Nucleic Acid [15]) was 0.09, the Ratio (Nucleic Acid [16]) was 0.49 and the Drug uptake (Heart [17]) was 1.12 % ID/g. The Drug uptake (Liver [18]) was 7.96 % ID/g, the Drug uptake (Spleen [19]) was 1.25 % ID/g and the Drug uptake (Lung [20]) was 5.12 % ID/g. The Drug uptake (Kidney [21]) was 2.83 % ID/g, the Drug uptake (Stomach [22]) was 7.03 % ID/g and the Drug uptake (Muscle tissue [23]) was 2.46 % ID/g. The Drug uptake (Brain [24]) was 0.39 % ID/g, the Drug uptake (Mus musculus [25]) was 4.04 % ID/g and the Drug uptake (Blood [26]) was 1.58 % ID/g. The Ratio (Nucleic Acid [27]) was 1.64, the Ratio (Nucleic Acid [28]) was 2.56 and the Ratio (Nucleic Acid [29]) was 10.36. For the same molecule, the Drug uptake (Heart [30]) was 0.98 % ID/g, the Drug uptake (Liver [31]) was 1.87 % ID/g and the Drug uptake (Spleen [32]) was 0.8 % ID/g. The Drug uptake (Lung [33]) was 5.6 % ID/g, the Drug uptake (Kidney [34]) was 0.9 % ID/g and the Drug uptake (Stomach [35]) was 4.05 % ID/g. The Drug uptake (Muscle tissue [36]) was 0.43 % ID/g, the Drug uptake (Brain [37]) was 0.19 % ID/g and the Drug uptake (Mus musculus [38]) was 3.31 % ID/g. For the same molecule, the Drug uptake (Blood [39]) was 1.11 % ID/g, the Ratio (Nucleic Acid [40]) was 7.7 and the Ratio (Nucleic Acid [41]) was 2.98. For the same molecule, the Ratio (Nucleic Acid [42]) was 17.42, the Drug uptake (Heart [43]) was 1.87 % ID/g and the Drug uptake (Liver [44]) was 1.78 % ID/g. For the same molecule, the Drug uptake (Spleen [45]) was 1.05 % ID/g, the Drug uptake (Lung [46]) was 3.6 % ID/g and the Drug uptake (Kidney [47]) was 1.07 % ID/g. It also gave a Drug uptake (Stomach [48]) of 4.1 % ID/g, a Drug uptake (Muscle tissue [49]) of 1.31 % ID/g and a Drug uptake (Brain [50]) of 0.09 % ID/g. For the same molecule, the Drug uptake (Mus musculus [51]) was 3.7 % ID/g, the Drug uptake (Blood [52]) was 0.56 % ID/g and the Ratio (Nucleic Acid [53]) was 2.82. It also gave a Ratio (Nucleic Acid [54]) of 6.61, a Ratio (Nucleic Acid [55]) of 41.11 and a CL (Blood [56]) of 88%.

From ChEMBL document CHEMBL2057203, “Synthesis and evaluation of novel F-18 labeled 4-aminoquinazoline derivatives: potential PET imaging agents for tumor detection” (Bioorg Med Chem Lett, 2012)
